According to patent US10577362B2, “Substituted 2, 4-diamino-quinoline derivatives for use in the treatment of proliferative diseases” (GENOSCIENCE PHARMA, priority 2016, dated 2020):

Assays:
[1] = system: MOLM-14 (acute myeloid leukemia) cell line; assay: CellTiter-Glo luminescent cell viability assay, MOLM-14; assay type: cell-based, human; details: Homo sapiens; for viability at 4 µM: MOLM-14, compound at 4 μM; for viability at 4 µM / viability at 10 µM: 72 h; for viability at 10 µM: MOLM-14, compound at 10 μM; for EC50: MOLM-14 cell line, 72 h incubation, CellTiter-Glo, read-out: EC50, growth inhibition of MOLM-14
How it was run: (§1)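 72 h compound exposure, 37 °C, 5% CO2, 10% FBS medium; ATP luminescence read after 30 min RT equilibration. Viability as % of H2O/DMSO diluent control; EC50 = dose giving 50% of control signal. Duplicate points minimum.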

[2] = system: PANC-1 (prancreatic carcinoma) cell line; assay: CellTiter-Glo luminescent cell viability assay, PANC-1; assay type: cell-based; details: Homo sapiens; for viability at 4 µM: PANC-1, 4 μM; for viability at 4 µM / viability at 10 µM: 72 h, % of signal of diluent-treated cultures; for viability at 10 µM: PANC-1, 10 μM; for EC50: PANC-1 cell line, 72 h incubation, CellTiter-Glo, read-out: EC50 (growth inhibition assay of PANC-1 cell line)
Procedure: All cell lines were maintained in medium containing 1% penicillin-streptomycin (Dutscher, P06-07100) and 10% Fetal Bovine Serum (Hyclone Dutscher, RZK35922) cultured at 37° C. with 5% CO2. HepG2 (hepatocellular carcinoma), cell line was cultured in Dulbecco's modified Eagle's medium low glucose (Gibco, 21885025), Huh7 (hepatocellular carcinoma), HCT-116 (colorectal carcinoma), PANC-1 (prancreatic carcinoma) and A375 (malignant melanoma) cell lines were cultured in Dulbecco's modified Eagle's medium (Dutscher, L0103). MOLM-14 (acute myeloid leukemia) cell line was maintained in MEM alpha medium (Gibco, 22561-021). 786-0 (renal adenocarcinoma) cell lines were maintained in RPMI 1640 medium (Dutscher, L0498).
Cell viability was measured using the CellTiter-Glo® luminescent cell viability assay as described by the manufacturer (Promega, Ref G7571) using an Infinite F200Pro luminometer (Tecan). Briefly, for adherent cells, cells were plated onto 96-well plates (white with clear bottom) in 90 μL of media per well and were allowed to grow overnight before the assay. For cells growing in suspension, cells were plated onto 96-well plates 1 h before the assay.
Compounds were resuspended in H2O or DMSO and added at different concentrations to each well, and cell cultures were incubated for 72 h. Each diluent (H2O or DMSO) were used as a control, and all compounds were tested in a constant percentage of H2O or DMSO. On the day of the reading, plates are equilibrated 30 min at room temperature before the addition of 100 μL of CellTiter-Glo® and luminescence was measured using an Infinite F200Pro (Tecan). % cell viability were expressed as a percentage of the signal obtained for cell cultures treated with diluent. EC50 values were determined as the dose of compound required to reduce luminescent values to 50% of the signal obtained for cell cultures treated with diluent. The experimental data were analyzed using a computer program, Graphpad Prism v5 (GraphPad Software, Inc. La Jolla, Calif.). All points were at least done in duplicate.

[3] = system: HepG2 (hepatocellular carcinoma) cell line; assay: CellTiter-Glo luminescent cell viability assay, HepG2; assay type: cell-based, human; details: Homo sapiens; for viability at 4 µM / viability at 10 µM: HepG2, HepG, 72 h; for viability at 4 µM: compound at 4 μM; for viability at 10 µM: compound at 10 μM; for EC50: HepG2 cell line, 72 h incubation, CellTiter-Glo, read-out: EC50, growth inhibition of HepG2
How it was run: as §1

[4] = system: 786-O (renal adenocarcinoma) cell line; assay: CellTiter-Glo luminescent cell viability assay, 786-O; assay type: cell-based, human; details: Homo sapiens, 786-0; for EC50: 786-O cell line, 72 h incubation, CellTiter-Glo, read-out: EC50, growth inhibition of 786-O; for viability at 4 µM / viability at 10 µM: 786-O, 72 h; for viability at 4 µM: compound at 4 μM; for viability at 10 µM: compound at 10 μM
How it was run: (§2)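 Luminescent signal, normalised to diluent-treated cultures, defines % viability; EC50 is the concentration lowering it to 50%. Cells had been exposed to compound for 72 h at 37 °C in medium with 10% FBS, at a constant H2O or DMSO percentage.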

[5] = system: HCT-116 (colorectal carcinoma) cell line; assay: CellTiter-Glo luminescent cell viability assay, HCT-116; assay type: cell-based, human; details: Homo sapiens; for viability at 4 µM: HCT-116, compound at 4 μM; for viability at 4 µM / viability at 10 µM: 72 h; for viability at 10 µM: HCT-116, compound at 10 μM; for EC50: HCT-116 cell line, 72 h incubation, CellTiter-Glo, read-out: EC50, growth inhibition of HCT-116
How it was run: as §2

[6] = system: A375 (malignant melanoma) cell line; assay: CellTiter-Glo luminescent cell viability assay, A375; assay type: cell-based, human; details: Homo sapiens, A-375; for viability at 4 µM: A375, compound at 4 μM; for viability at 4 µM / viability at 10 µM: 72 h; for viability at 10 µM: A375, compound at 10 μM; for EC50: A375 cell line, 72 h incubation, CellTiter-Glo, read-out: EC50, growth inhibition of A375
How it was run: as §2

[7] = system: Huh7 (hepatocellular carcinoma) cell line; assay: CellTiter-Glo luminescent cell viability assay, Huh7; assay type: cell-based, human; details: Homo sapiens, Huh-7; for viability at 4 µM: Huh7, compound at 4 μM; for viability at 4 µM / viability at 10 µM: 72 h; for viability at 10 µM: Huh7, compound at 10 μM; for EC50: Huh7 cell line, 72 h incubation, CellTiter-Glo, read-out: EC50, growth inhibition of Huh7
How it was run: as §1

Row | SMILES | viability at 4 µM [1] [%] | viability at 10 µM [1] [%] | EC50 [1] [µM] | viability at 4 µM [2] [%] | viability at 10 µM [2] [%] | viability at 4 µM [3] [%] | viability at 10 µM [3] [%] | EC50 [3] [µM] | EC50 [4] [µM] | viability at 4 µM [4] [%] | viability at 10 µM [4] [%] | viability at 4 µM [5] [%] | viability at 10 µM [5] [%] | EC50 [5] [µM] | viability at 4 µM [6] [%] | viability at 10 µM [6] [%] | EC50 [6] [µM] | viability at 4 µM [7] [%] | viability at 10 µM [7] [%] | EC50 [7] [µM] | further results
1 | Cc1ccc2nc(NCc3ccc(Cl)cc3)c(C#N)c(N3CCC(NC(C)(C)C)CC3)c2c1 [Compound 418CN, 2-(4-chlorobenzylamino)-3-cyano-4-[4-(tert-butylamino)piperidin-1-yl]-6-methylquinoline] | 3.8 | 0.3 | 0.5 to 5 | 79.8 | 0.4 | 5 | 0.2 | 0.5 to 5 | 0.5 to 5 | 0.9 | 0.2 | 0.2 | 0.2 | 0.5 to 5 | 0.3 | 0.3 | 0.5 to 5 | 50.5 | 0.3 | 0.5 to 5 | EC50 [2]: 5 to 10 µM
2 | CC(C)(C)NC1CCN(c2c(C#N)c(Nc3ccncn3)nc3ccccc23)CC1 [Compound 3282CN, 2-(pyrimidin-4-ylamino)-3-cyano-4-[4-(tert-butylamino)piperidin-1-yl]quinoline] | 93.3 | 63.5 |  | 102 | 77.3 | 58.9 | 40.3 |  |  | 102 | 76.9 | 73.7 | 39.8 |  | 88.6 | 64.1 |  | 97.9 | 75.4 |  | 
3 | N#Cc1c(NCc2ccc(Cl)cc2)nc2ccccc2c1N1CCC(N)C1 (centres unmarked) [Compound 3190CN, 2-(4-chloro-benzylamino)-3-cyano-4-[3-amino-pyrrolidin-1-yl]quinoline] | 78.1 | 2.1 | 5 to 10 | 93.7 | 56.1 | 95.5 | 16 | 5 to 10 | 5 to 10 | 90.6 | 1.6 | 75.2 | 0.4 | 5 to 10 | 87.3 | 0.8 | 5 to 10 | 92.7 | 1.3 | 5 to 10 | 
4 | N#Cc1c(NCc2ccc(Cl)cc2)nc2ccccc2c1N1CCCC(N2CCOCC2)C1 (centres unmarked) [Compound 178CN, 2-(4-chlorobenzylamino)-3-cyano-4-[3-(morpholino)piperidin-1-yl]quinoline] | 123 | 106 |  | 100 | 96.6 | 101 | 97.5 |  |  | 99.6 | 88.9 | 95.7 | 77 |  | 95.5 | 90.2 |  | 95.3 | 81.9 |  | 
5 | CN(C)C1CCN(c2c(C#N)c(NCc3ccc(Cl)cc3)nc3ccccc23)C1 (centres unmarked) [Compound 3202CN, 2-(4-chloro-benzylamino)-3-cyano-4-[3-(dimethylamino)pyrrolidin-1-yl]quinoline] | 98.7 | 82.6 |  | 96.1 | 81.5 | 104 | 81 |  |  | 92.9 | 74.7 | 93.7 | 62.4 |  | 84.5 | 70.5 |  | 91.1 | 61.5 |  | 
6 | Cc1nc(Nc2nc3ccccc3c(N3CCC(NC(C)(C)C)CC3)c2C#N)n(C)n1 [Compound 3274CN, 2-[(1,3-dimethyl-1H-1,2,4-triazol-5-yl)amino]-3-cyano-4-[4-(tert-butylamino)piperidin-1-yl]quinoline] | 91.3 | 78.2 |  | 96.7 | 89.9 | 63.4 | 55.2 |  |  | 106 | 83.4 | 73.3 | 49.5 |  | 84.7 | 69.2 |  | 96.2 | 75 |  | 
7 | CC(C)(C)NC1CCN(c2c(C#N)c(NCc3cccnc3)nc3ccccc23)CC1 [Compound 3304CN, 2-[(pyridin-3-ylmethyl)amino]-3-cyano-4-[4-(tert-butylamino)piperidin-1-yl]quinoline] | 94.2 | 81 |  | 99.3 | 98.7 | 91.2 | 83.4 |  |  | 98.9 | 80.7 | 70.6 | 41.6 |  | 99.5 | 74.4 |  | 93.3 | 82.8 |  | 
8 | N#Cc1c(NCc2ccc(Cl)cc2)nc2ccccc2c1N1CCCC(NC2CCCC2)C1 (centres unmarked) [Compound 162CN, 2-(4-chlorobenzylamino)-3-cyano-4-[3-(cyclopentylamino)piperidin-1-yl]quinoline] | 45.6 | 0.3 | 0.5 to 5 | 75.3 | 0.8 | 0.3 | 0.1 | 0.5 to 5 | 0.5 to 5 | 12 | 0.2 | 0.8 | 0.1 | 0.5 to 5 | 0.4 | 0.2 | 0.5 to 5 | 37.1 | 0.2 | 0.5 to 5 | 
9 | N#Cc1c(NCc2ccc(Cl)cc2)nc2ccccc2c1N1CCCC(N)C1 (centres unmarked) [Compound 3156CN, 2-(4-chlorobenzylamino)-3-cyano-4-(3-aminopiperidin-1-yl)quinoline] | 92.8 | 0.6 | 5 to 10 | 102 | 0.9 | 32.6 | 0.5 | 0.5 to 5 | 0.5 to 5 | 77.8 | 0.6 | 52 | 0.5 | 0.5 to 5 | 10 | 0.4 | 0.5 to 5 | 83 | 0.6 | 0.5 to 5 | EC50 [2]: 5 to 10 µM
